Source: article PMC9268553 (Molecules, 2022)
Several values for one entry are separate records, joined by “and”; a condition that tells them apart may be missing. Equal entries are not always repeated. Where two headings read alike, the source gives them in different places.

Legend:
[1] = biological target: T1, human fXa (Homo sapiens, UniProt P00742); assay: biochemical
T1 construct: purchased Chromogenix AB-Instrumentation Laboratories (Milan, Italy)

[2] = biological target: T2, bovine thrombin (Bos taurus, UniProt P00735); assay: thrombin inhibition, chromogenic substrate S-2238; format: biochemical
T2 construct: purchased Sigma-Aldrich (Milan, Italy)

[3] = biological target: α-chymotrypsin (Bos taurus, UniProt P00766); assay: α-chymotrypsin inhibition; format: biochemical; details: read-out: Ki αCHT
[4] = biological target: T3, AChE (from electric eel) (Electrophorus electricus, UniProt O42275); assay: biochemical; details: for inhibition at 50 µM: read-out: inhibition percentage AchE
T3 construct: AChE (from electric eel); from tissue

[5] = biological target: T4, BChE (from horse serum) (Equus caballus, UniProt P81908); assay: biochemical; details: for inhibition at 50 µM: read-out: inhibition percentage BchE
T4 construct: BChE (from horse serum); from tissue; host or cells: horse serum

[6] = Cheng–Prusoff from IC50, pH 8, mean of three measurements, read-out: Ki fXa
[7] = horse serum BChE, Cheng–Prusoff from IC50
[8] = electric eel AChE, Cheng–Prusoff from IC50, read-out: Ki AchE

T4 sequence (P81908 whole entry): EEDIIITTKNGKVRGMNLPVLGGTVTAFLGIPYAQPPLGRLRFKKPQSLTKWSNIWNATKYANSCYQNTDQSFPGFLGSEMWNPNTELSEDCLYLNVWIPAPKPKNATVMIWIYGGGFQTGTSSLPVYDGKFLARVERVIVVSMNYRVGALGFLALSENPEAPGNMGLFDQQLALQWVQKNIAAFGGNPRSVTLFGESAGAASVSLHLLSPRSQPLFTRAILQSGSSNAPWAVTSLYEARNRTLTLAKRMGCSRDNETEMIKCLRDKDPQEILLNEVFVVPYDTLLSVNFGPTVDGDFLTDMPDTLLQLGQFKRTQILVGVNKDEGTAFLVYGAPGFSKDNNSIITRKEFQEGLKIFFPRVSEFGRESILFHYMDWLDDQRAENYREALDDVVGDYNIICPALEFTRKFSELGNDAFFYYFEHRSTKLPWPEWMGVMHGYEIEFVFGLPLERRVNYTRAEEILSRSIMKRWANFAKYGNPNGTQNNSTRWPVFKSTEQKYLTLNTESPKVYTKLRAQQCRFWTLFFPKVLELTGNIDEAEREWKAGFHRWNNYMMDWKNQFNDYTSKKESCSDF
T3 sequence (O42275 24-633): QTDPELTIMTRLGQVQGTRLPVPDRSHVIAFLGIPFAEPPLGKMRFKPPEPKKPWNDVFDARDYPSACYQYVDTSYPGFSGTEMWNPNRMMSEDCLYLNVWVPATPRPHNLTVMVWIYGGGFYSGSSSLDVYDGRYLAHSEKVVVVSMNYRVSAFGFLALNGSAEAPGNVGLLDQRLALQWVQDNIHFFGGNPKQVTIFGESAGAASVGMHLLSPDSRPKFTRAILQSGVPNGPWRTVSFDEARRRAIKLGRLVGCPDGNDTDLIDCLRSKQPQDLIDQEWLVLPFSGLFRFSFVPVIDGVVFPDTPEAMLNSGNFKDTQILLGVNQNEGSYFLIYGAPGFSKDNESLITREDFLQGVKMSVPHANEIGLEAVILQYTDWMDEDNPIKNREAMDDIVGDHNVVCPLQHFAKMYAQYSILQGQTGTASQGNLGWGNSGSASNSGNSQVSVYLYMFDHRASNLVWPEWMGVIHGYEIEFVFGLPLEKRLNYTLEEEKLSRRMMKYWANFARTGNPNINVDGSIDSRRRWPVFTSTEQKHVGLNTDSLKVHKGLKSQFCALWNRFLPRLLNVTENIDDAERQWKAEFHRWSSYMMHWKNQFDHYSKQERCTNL
T1 sequence (P00742 235-488 limits assumed): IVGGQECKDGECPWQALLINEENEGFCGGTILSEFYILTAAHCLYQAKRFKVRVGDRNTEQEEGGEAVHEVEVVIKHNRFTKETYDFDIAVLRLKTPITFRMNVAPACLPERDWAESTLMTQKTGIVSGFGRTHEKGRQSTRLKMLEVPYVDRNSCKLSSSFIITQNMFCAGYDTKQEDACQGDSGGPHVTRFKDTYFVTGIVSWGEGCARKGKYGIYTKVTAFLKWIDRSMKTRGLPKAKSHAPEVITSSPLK
T1 sequence (P00742 41-179 partner limits assumed): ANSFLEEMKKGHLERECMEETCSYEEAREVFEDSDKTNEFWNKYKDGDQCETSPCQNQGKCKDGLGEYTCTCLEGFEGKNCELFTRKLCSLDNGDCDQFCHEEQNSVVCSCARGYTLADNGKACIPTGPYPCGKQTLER

Row | Structure (SMILES) | Ki [1, 6] | Ki [2] | Ki [3] | Ki [5, 7] | Ki [4, 8] | other results
1 | N=C(N)c1cccc(NC(=O)CC(=O)Nc2ccc(OC3CCNCC3)cc2)c1 [Compound 23a] | 590 nM | 42.4 µM | > 50 µM | 10 µM |  | inhibition at 50 µM [4]: 1%
2 | N=C(N)c1cccc(NC(=O)CC(=O)NCc2ccc(-c3cc(F)cc(F)c3)cc2)c1 [Compound 19i] | 264 nM | 26.7 µM | 30.2 µM | 8.02 µM |  | inhibition at 50 µM [4]: 5%
3 | Cc1ccc(CNC(=O)CC(=O)Nc2cccc(C(=N)N)c2)cc1 [Compound 19b] | 4200 nM | 36.6 µM |  |  |  | 
4 | N=C(N)c1cccc(NC(=O)CC(=O)N2CCC(Oc3ccc(F)c(F)c3)CC2)c1 [Compound 22c] | 120 nM | 27 µM | > 50 µM | 10.9 µM | 2.68 µM | 
5 | N=C(N)c1cccc(NC(=O)CC(=O)NCc2ccccc2)c1 [Compound 18b] | 12300 nM | > 50 µM |  |  |  | 
6 | N=C(N)c1ccc(NC(=O)CNC(=O)Cc2ccccc2)cc1 [Compound 4a] | > 50000 nM | 39.4 µM |  |  |  | 
7 | N=C(N)c1ccc(NC(=O)CC(=O)NCCCCc2ccccc2)cc1 [Compound 18e] | 18600 nM | 5.5 µM |  |  |  | 
8 | N=C(N)c1cccc(NC(=O)CC(=O)NCc2ccc(-c3cccc(F)c3)cc2)c1 [Compound 19f] | 350 nM and 348 nM | 18.8 µM | 26.5 µM |  |  | Ki ([4]; read-out: Ki AchE): 8.11 µM; Ki [5]: 8.09 µM
9 | N=C(N)c1cccc(NC(=O)CC(=O)NCc2ccc(-c3ccc(F)cc3)cc2)c1 [Compound 19g] | 910 nM and 907 nM | 6.19 µM | > 50 µM |  | 4.48 µM | inhibition at 50 µM [5]: 37%
10 | N=C(N)c1cccc(NC(=O)CNC(=O)Cc2ccc(-c3ccc(F)cc3F)cc2)c1 [Compound 4c] | 1010 nM | 10.7 µM | 35 µM |  |  | decrease of anti-fXa activity from malonamide 19h to glycinamide 4c ([1]; ratio of Ki, relative to 19h): about 20 times
11 | CC(C)N1CCC(Oc2ccc(NC(=O)CC(=O)Nc3cccc(C(=N)N)c3)cc2)CC1 [Compound 23b] | 2300 nM | > 50 µM | > 50 µM | 0.65 µM | 1.3 µM | 
12 | N=C(N)c1ccc(NC(=O)CC(=O)NCCc2ccccc2)cc1 [Compound 18c] | > 50000 nM | > 50 µM |  |  |  | 
13 | N=C(N)c1ccc(NC(=O)CC(=O)NCc2ccc(-c3ccccc3)cc2)cc1 [Compound 19c] | > 50000 nM | > 50 µM |  |  |  | 
14 | N=C(N)c1cccc(NC(=O)CNC(=O)Cc2ccccc2)c1 [Compound 4b] | 25600 nM | 24.1 µM |  |  |  | 
15 | N=C(N)c1cccc(NC(=O)CC(=O)N2CCC(Oc3ccc(F)cc3)CC2)c1 [Compound 22a] | 350 nM | > 50 µM | > 50 µM |  | 1.88 µM | inhibition at 50 µM [5]: 22%
16 | N=C(N)c1cccc(NC(=O)CC(=O)NCc2ccc(-c3ccc(F)cc3F)cc2)c1 [Compound 19h] | 57 nM | 16.1 µM | > 50 µM | 1.52 µM | 2.44 µM | Ki ([1]; read-out: Ki against fXa): 57 nM
17 | Cc1ccc(CNC(=O)CC(=O)Nc2ccc(C(=N)N)cc2)cc1 [Compound 19a] | 4400 nM | 36.5 µM |  |  |  | 
18 | N=C(N)c1cccc(NC(=O)CC(=O)NCc2ccc(-c3ccccc3F)cc2)c1 [Compound 19e] | 930 nM and 932 nM | 14.6 µM | > 50 µM | 7.7 µM |  | inhibition at 50 µM [4]: 35%
19 | N=C(N)c1cccc(NC(=O)CC(=O)N2CCN(c3ccc(F)cc3)CC2)c1 [Compound 21a] | 423 nM | 31.4 µM | > 50 µM | 10 µM | 4.68 µM | 
20 | N=C(N)c1cccc(NC(=O)CC(=O)NCc2ccc(-c3ccccc3)cc2)c1 [Compound 19d] | 1560 nM | > 50 µM | 4.3 µM |  | 9.33 µM | inhibition at 50 µM [5]: 28%
21 | CC(C)(C(=O)NCc1ccc(-c2ccc(F)cc2F)cc1)C(=O)Nc1cccc(C(=N)N)c1 [Compound 19l] | 214 nM | > 50 µM | > 50 µM | 1.55 µM |  | Ki [4]: 3.74 µM
22 | N=C(N)c1ccc(NC(=O)CC(=O)NCc2ccccc2)cc1 [Compound 18a] | 23200 nM | > 50 µM |  |  |  | 
23 | N=C(N)c1cccc(NC(=O)CC(=O)Nc2cccc(OCCc3ccc(F)cc3)c2)c1 [Compound 20a] | 413 nM | 12 µM | > 50 µM | 1.02 µM | 10 µM | 
24 | N=C(N)c1ccc(NC(=O)CC(=O)NCCCc2ccccc2)cc1 [Compound 18d] | 39800 nM | 25.5 µM |  |  |  | 
25 | COc1ccc(CCOc2cccc(NC(=O)CC(=O)Nc3cccc(C(=N)N)c3)c2)cc1 [Compound 20b] | 205 nM | 6.66 µM | > 50 µM | 5.84 µM | 1.56 µM | 
26 | N=C(N)c1cccc(NC(=O)CC(=O)N2CCC(Oc3ccc(F)cc3F)CC2)c1 [Compound 22b] | 89 nM | > 50 µM | > 50 µM |  | 2.31 µM | inhibition at 50 µM [5]: 25%
